Where “and” joins values, the source holds several entries; their conditions need not be identical. Equal values may be shown once.
Columns and labels:
[1] = tested on: pain following cataract surgery; test: Clinical study after cataract surgery: Grade 0 pain; type: in vivo, human
Excerpt: (§1) There were 8 treatment groups in this study, consisting of three drug doses, vehicle and three dosing frequencies (see also Table 4-1): • Group A: 1% BOL-303242-X ophthalmic suspension, two times per day (BID) • Group B: 2% BOL-303242-X ophthalmic suspension, one time per day (QD) • Group C: 2% BOL-303242-X ophthalmic suspension, BID • Group D: 2% BOL-303242-X ophthalmic suspension, four times per day (QID) • Group E: 3% BOL-303242-X ophthalmic suspension, QD • Group F: 3% BOL-303242-X ophthalmic suspension, BID • Group G: 3% BOL-303242-X ophthalmic suspension, QID • Group H: Vehicle for BOL-303242-X (divided equally into QID, BID, and QD)
(§2) Subjects self-administered study drug, instilling 1 to 2 drops of study drug into the study eye: QID at approximately 4 hour intervals, BID at approximately 12 hour intervals, or QD once in the morning, for 14 days. The initial dose occurred in the clinic at Visit 3 and the final dose was on the day before Visit 6 (postoperative Day 15±1 day). Subjects were examined and evaluated according to the following schedule:
Visit 1 (screening), Visit 2 (cataract surgery), Visit 3 (postoperative Day 1), Visit 4 (postoperative Day 3±1 day), Visit 5 (postoperative Day 8±1 day), Visit 6 (postoperative Day 15±1 day), Visit 7 (postoperative Day 18±1 day). Subject assessments included adverse events (AEs), concomitant medications, ocular symptoms, pinholed Snellen visual acuity (VA), intraocular pressure (IOP), ocular signs (biomicroscopy), fundoscopy, and study drug drop sensation. In addition, subject diaries were collected and reviewed for accuracy and treatment compliance.
Secondary Efficacy: The secondary efficacy endpoints for this study were the proportions of subjects with Grade 0 pain at Visit 5 (postoperative Day 8) and at each visit, complete resolution of AC cells at each visit, complete resolution of AC cells and flare at each visit, complete resolution of AC flare at each visit, change from baseline to each follow-up visit in AC cells and AC flare combined and separately, ocular symptoms.

[2] = tested on: protein concentration in the aqueous humor; test: Protein measurement in aqueous humor, rabbit paracentesis model; type: in vivo, Rabbit (New Zealand); conditions: for Protein level in aqueous humor, Mean: group mean
Description: (§3) Each rabbit was placed in a restraint device and tagged with the alphanumeric code. The formulations were instilled (50 μl) into the conjunctival sac of both eyes 180, 120, 90 and 30 min before the first paracentesis; then 15, 30, 90 min after the first paracentesis. To perform the first paracentesis the animals were anaesthetized by intravenous injection of 5 mg/kg Zoletil® (Virbac; 2.5 mg/kg tiletamine HCl and 2.5 mg/kg zolazepam HCl) and one drop of local anesthetic (Novesina®, Novartis) was administered to the eye. Anterior chamber paracentesis was performed with a 26 G needle attached to a tuberculin syringe; the needle was introduced into the anterior chamber through the cornea, taking care not to damage the tissues. Two hours after the first paracentesis, the animals were sacrificed with 0.4 ml Tanax® (Intervet International B.V.) and the second paracentesis was performed. About 100 μl of aqueous humor were removed at the second paracentesis. Aqueous humor was immediately split in four aliquots and stored at −80° C. until analysis. Then both eyes were enucleated and the iris-ciliary body was carefully excised, placed in polypropylene tubes, and stored at −80° C. until analysis.
For protein concentration determination in the aqueous humor we used the Protein Quantification Kit (Fluka; Cat. No. 77371; Lot. No. 1303129). Five microliters of aqueous humor were diluted to 100 μl with water. Twenty microliters of samples and of standards were load into a 96-well plate and recorded in a plate layout. Samples were treated following the assay procedure described in the kit. A microplate reader (GDV, Italy; model DV 990 B/V6) set at 670 nm was used for making the calibration and analyzing the samples.
(§4) Pupillary diameter, PGE2, protein, PMN, and MPO were expressed as mean±SEM. Statistical analysis was performed using one way ANOVA followed by a Newman-Keuls post hoc test. Clinical score was expressed as % of eyes and the statistical analysis was performed using Kruskal-Wallis followed by a Dunn post hoc test. P<0.05 was considered statistically significant in both cases. Prism 4 software (GraphPad Software, Inc.) was used for the analysis and graphs.

[3] = tested on: iris and conjunctival vessels, anterior chamber; test: Clinical evaluation by slit lamp (clinical score), rabbit paracentesis model; type: in vivo, Rabbit (New Zealand); parameters: key to Clinical Score −180 min / Clinical Score −5 min / Clinical Score +115 min: 0=normal; 1=discrete dilatation of iris and conjunctival vessels; 2=moderate dilatation of iris and conjunctival vessels; 3=intense iridal hyperemia with flare in the anterior chamber; 4=intense iridal hyperemia with flare in the anterior chamber and presence of fibrinous exudates; conditions: for Clinical Score −5 min: 5 min before the first paracentesis; for Clinical Score −5 min / Clinical Score +115 min / Clinical Score −180 min: raw data per eye; for Clinical Score +115 min: 5 min before the second paracentesis; for Clinical Score −180 min: basal
[4] = tested on: anterior chamber cells and flare following cataract surgery; test: Clinical study after cataract surgery: resolution of anterior chamber (AC) cells and flare; type: in vivo, human; conditions: 2% QID, 3% QD, 3% BID, and 3% QID
Excerpt: as §1, §2
Visit 1 (screening), Visit 2 (cataract surgery), Visit 3 (postoperative Day 1), Visit 4 (postoperative Day 3±1 day), Visit 5 (postoperative Day 8±1 day), Visit 6 (postoperative Day 15±1 day), Visit 7 (postoperative Day 18±1 day). […]

[5] = tested on: leukocytes (PMN) in aqueous humor; test: Leukocytes (PMN) measurement in aqueous humor, rabbit paracentesis model; type: in vivo, Rabbit (New Zealand); conditions: second paracentesis, group mean
Description: as §3
For the determination of the number of leukocytes we used a haernocytometer (Improved Neubauer Chamber; Bright-line, Hausser Scientific) and a Polyvar 2 microscope (Reichert-Jung).
as §4

[6] = tested on: anterior-segment inflammation after anterior chamber paracentesis; test: Rabbit paracentesis model, overall anti-inflammatory activity; type: in vivo, Rabbit (New Zealand)
[7] = 0.1% formulation, +115 min, N=8 eyes
[8] = 0.5% formulation, +115 min, N=8 eyes

Structure (SMILES): Cc1ccc2c(NC[C@](O)(CC(C)(C)c3cc(F)cc4c3OCC4)C(F)(F)F)cccc2n1 [BOL-303242-X, mapracorat]
- proportion of subjects with Grade 0 pain ([1]; 2% QID, Visit 5 (postoperative Day 8), vehicle 50.0%): 78.3%
- proportion of subjects with Grade 0 pain ([1]; 3% BID, Visit 7 (postoperative Day 18), vehicle 31.7%): 63.3%
- proportion of subjects with Grade 0 pain ([1]; 3% QID, Visit 7 (postoperative Day 18), vehicle 31.7%): 58.3%
- Protein level in aqueous humor, Mean ([2]; 0.1% formulation, second paracentesis): 33.667 mg/mL
- Protein in aqueous humor, statistical significance vs CTR ([2]; 0.5% formulation, p<0.05): statistical significance
- Protein level in aqueous humor, Mean ([2]; 0.5% formulation, second paracentesis): 28.844 mg/mL
- Protein level in aqueous humor, raw data ([2]; 0.5% formulation, second paracentesis, per eye, listed as BOL): 33.98 mg/mL and 33.65 mg/mL and 19.99 mg/mL and 27.11 mg/mL and 19.72 mg/mL and 36.35 mg/mL and 27.71 mg/mL and 32.24 mg/mL
- Protein in aqueous humor, statistical significance vs CTR ([2]; 1% formulation, p<0.001): statistical significance
- Protein level in aqueous humor, Mean ([2]; 1% formulation, second paracentesis): 21.435 mg/mL
- Clinical Score −5 min ([3]; 0.1% formulation): 0
- Clinical Score +115 min ([3]; 0.1% formulation, listed as BOL): 2 and 3
- Percentage of eyes with clinical score 2 [3, 7]: 75%
- Percentage of eyes with clinical score 3 [3, 7]: 25%
- Clinical Score −180 min ([3]; 0.1% formulation): 0
- Percentage of eyes with clinical score 0 ([3]; 0.1% formulation, −5 min, N=8 eyes): 100%
- Percentage of eyes with clinical score 0 ([3]; 0.1% formulation, −180 min (basal), N=8 eyes): 100%
- Clinical Score −5 min ([3]; 0.5% formulation): 0
- Clinical Score +115 min ([3]; 0.5% formulation, listed as BOL): 2 and 1
- Percentage of eyes with clinical score 1 [3, 8]: 37.5%
- Percentage of eyes with clinical score 2 [3, 8]: 62.5%
- Clinical Score −180 min ([3]; 0.5% formulation): 0
- Percentage of eyes with clinical score 0 ([3]; 0.5% formulation, −5 min, N=8 eyes): 100%
- Percentage of eyes with clinical score 0 ([3]; 0.5% formulation, −180 min (basal), N=8 eyes): 100%
- Clinical Score −5 min ([3]; 1% formulation): 0
- Clinical Score +115 min ([3]; 1% formulation): 2
- Percentage of eyes with clinical score 2 ([3]; 1% formulation, +115 min, N=8 eyes): 100%
- Clinical Score −180 min ([3]; 1% formulation): 0
- Percentage of eyes with clinical score 0 ([3]; 1% formulation, −5 min, N=8 eyes): 100%
- Percentage of eyes with clinical score 0 ([3]; 1% formulation, −180 min (basal), N=8 eyes): 100%
- improvements in AC cells and Grade 0 pain at Visit 5 (postoperative Day 8) [4]: statistically significant improvements
- PMN numbers in aqueous humor, Mean ([5]; 0.1% formulation): 28.333 number/μl
- PMN numbers in aqueous humor, Mean ([5]; 0.5% formulation): 21.250 number/μl
- PMN numbers in aqueous humor, Mean ([5]; 1% formulation): 28.750 number/μl
- Activity in the rabbit paracentesis model ([6]; 0.1%, 0.5% and 1% topical formulations, preliminary conclusion): active in this model
- Anti-inflammatory effectiveness compared with steroid and NSAID positive controls ([6]; rabbit paracentesis model): as effective an anti-inflammatory drug as some of the commonly accepted prior-art steroids or NSAID

— patent US20120316199A1, “COMPOSITIONS AND METHODS FOR TREATING, CONTROLLING, REDUCING, OR AMELIORATING INFLAMMATORY PAIN” (priority 2011, published 2012)
